Measured values: US20030147850A1 (priority 2002, published 2003)

How the values were obtained:
[1] = system: erythroleukemia tumor cells; design: species or system C57BL male mice; conditions: mouse, in vivo
[2] = system: P388 tumor cells; design: species or system DBA/BALB(F1) male mice; conditions: mouse, in vivo, ip, 5 mg/kg
[3] = system: vesicular stomatitis virus (VSV)

Which results are given for “Recombinant human interferon-alpha2b [IFN]”?
Tumor mass [1]: 354 ± 16 mg; Tumor mass [2]: 4800 ± 500 mg

For Disodium succinate hexahydrate, which “protection of cells against virus-induced cytopathology” value [3] is on record?
The value was “no effect”.
